Experimental data published in patent US6635242B2, “Broad spectrum microbicidal and spermicidal compositions, devices, and methods” (The Pennsylvania State University, priority 1998, dated 2003).

Experiments:
[1] = test system: split thickness grafts of neonatal foreskin; test: SDS exposure and viability of human foreskin xenografts; assay type: in vivo; settings: 0.05% SDS, no virus; immediately and days 1, 5, 11 and 20
Procedure: A second set of control grafts was exposed only to identical concentrations of SDS and no virus. These grafts were harvested on days 1, 5, 11 and 20 following transplantation in order to follow the viability and growth of the grafts after SDS exposure.
Because of concern about the potential for SDS to kill human epithelium, control experiments were performed in which split thickness grafts of neonatal foreskin were exposed to 0.05% SDS alone and then subsequently grafted. All conditions in this experiment were identical to those used in the HPV 11 infections with treated virus, except that virus was not present. SDS-exposed grafts (2 animals at each time) were harvested, fixed and sectioned immediately after exposure, and on days 1, 5, 11 and 20 after treatment. […] The original split thickness grafts were approximately 1 mm×1 mm×1 mm in size; in addition they were punctured many times with the tip of a needle in order to allow entrance of the HPV 11 and/or the SDS into the epithelial layers. Although it is possible that some epithelial cells may have been damaged or killed during SDS exposure, damage was minimal and epithelial growth in the grafts was normal.

HSV-2 (strain 333) = test: HSV-2 inactivation assay (plaques on CV-1 monolayers); assay type: cell-based, herpes simplex virus; settings: 37° C. 10 min, virus then diluted 100 fold
Procedure: HSV-2 (strain 333) virus stocks were propagated by low multiplicity infection of African Green monkey kidney (CV-1) cells and subsequent preparation of cell-free supernatants from frozen and thawed preparations of lytically infected cultures. Virus titers were determined by assay in CV-1 cell monolayers. Virus stocks were maintained in CV-1 cell culture medium which was Dulbecco's medium supplemented with antibiotics and 10% fetal calf serum.
For inactivation of HSV-2, 39 μl of virus was mixed with 1 μl of a 40×concentrated solution of detergent and then incubated at 37° C. for 10 min. After inactivation, the 40 μl of virus sample was diluted to 4 ml (1:100) using cell culture medium, and 1 ml of the diluted virus was adsorbed onto CV-1 monolayers for 1 hr at 37° C. Following adsorption, monolayers were refed and incubated at 37° C., 5% CO2. Between 20 and 24 hr post infection, monolayers were fixed, stained with crystal violet and plaques counted using a dissecting microscope. The numbers in Table 1 each represent an average of 2 plates.

CRPV = assay type: in vivo, cottontail rabbit papillomavirus; settings: 0.05% SDS
HIV-1 (strain IIIB) = test: HIV-1 inactivation assay (HeLa-CD4-LTR-β-gal indicator cells); assay type: cell-based; settings: 10 min 37° C.
Procedure: One day prior to the assay, HeLa-CD4-LTR-β-gal cells were seeded into 12-well culture dishes at a concentration of 8×10^4 cells per well. A high titer (10^7.17 TCID50/ml) virus stock of HIV-1 (strain IIIB; Advanced Biotechnologies, Inc., Columbia, Md.) was diluted 1:10 with RPMI 1640 supplemented with 10% FBS. To assess viral inactivation by SDS, 78 μl of diluted virus were mixed with 2 μl of detergent solution, and incubated for 10 min at 37° C. After the inactivation period, the virus and detergent were diluted with 720 μl R10 (1:10) supplemented with DEAE dextran (20 μg/ml final concentration). Aliquots of treated virus (300 μl) were then added to duplicate wells of HeLa cells and incubated at 37° C. for 2 hr. Following viral adsorption, 2 ml of fresh media (DMEM supplemented with 10% FBS, 0.1 mg/ml G418, and 0.05 mg/ml hygromycin B) were added to each well. After incubation at 37° C. and 5% CO2 for 48 hr post-infection, cells were fixed and stained for β-galactosidase expression.
It is established that N-9 can inactivate HIV-1. We compared inactivation of HIV-1 by a second non-ionic detergent, C31G, and by SDS. High titer virus stocks of HIV-1 were incubated with either C31G or SDS and then virus was assayed on indicator cells expressing β-gal under the control of the HIV-1 LTR. After 48 hours, cells were stained and the number of cells expressing increased β-gal counted. […].

BPV-1 = BPV-1 focus assay in C127 mouse cells; assay type: cell-based, bovine papillomavirus; settings: for foci/plate Exp. 2 Day 14 / foci/plate Exp. 2 Day 17: 37° C. 10 minutes; for foci/plate Exp. 2 Day 14 / foci/plate Exp. 2 Day 17 / foci/plate Exp. 1 day 12: diluted 1:1000; for foci/plate Exp. 1 day 12: 37° C. 30 minutes
Procedure: Cell-free stocks of BPV-1 were prepared by extraction (10% w/v) of epidermal bovine warts in phosphate buffered saline (PBS). In order to detect the transforming ability of BPV-1, C127 mouse cells were seeded (3×10^5 cells per flask) into T-25^2 flasks. After 24 hr of growth, subconfluent cells were infected with BPV-1. For the positive controls, stock virus (20 μl) was diluted (1:1) with PBS, incubated at 37° C. for 10 min, diluted […] and then added (100 μl ) into the 5 ml of cell culture medium present on the cells. Cells were refed at 24 hours and subsequently 2 times weekly. The presence of morphologically transformed foci was counted after 2 weeks and then again at 3 weeks.
Virus inactivations were carried out in vitro by addition of concentrated SDS solutions to the virus stocks (20 μl of virus plus 20 μl of detergent) and subsequent incubation at 37° C. for 10 or 30 min as indicated. Following inactivation, virus was diluted 1000 fold to lower the detergent concentration and the preparations were immediately used for infection as above.
Although SDS could effectively reduce HSV-2 infectivity, it remained possible that this destruction was mediated by envelope removal. Because papillomaviruses are non-enveloped, the possibility remained that SDS would fail to inactivate these viruses. We utilized BPV-1 as a prototype PV because of its ability to rapidly (within 2 weeks) form multi-layered transformed foci in mouse fibroblasts in an in vitro assay. Table 3 describes results of two separate experiments in which stocks of BPV-1 were incubated at 37° C. with various concentrations of SDS (5% to 5×10^−4%) for either 10 or 30 minutes, diluted to lower the SDS concentration (to avoid cell toxicity) and then used to infect C127 cells. […] Table 4 lists several other commercially available detergents that were tested for possible inactivation of BPV-1. None of these detergents inactivated the morphologic transforming properties of the BPV-1.

[2] = 2.5 × 10^−3 % SDS during treatment
[3] = 5 × 10^−2 % SDS during treatment
[4] = 5 × 10^−3 % SDS during treatment
[5] = 5 × 10^−4 % SDS during treatment

In the case of CCCCCCCCCCCCOS(=O)(=O)[O-].[Na+] [SDS, Sodium dodecyl sulfate], the “viability of grafts exposed to SDS alone (histology)” value [1] is reported as “fully viable epithelium on all days and no apparent necrosis”, the “Plaques/Plate (5 experiments)” value (HSV-2 (strain 333); 1 × 10^−1 % SDS during treatment) is reported as 0/0/0/0/0 and the “Plaques/Plate (5 experiments)” value (HSV-2 (strain 333); 1.25 × 10^−2 % SDS during treatment) is reported as 0/0/0/0/0. The “Plaques/Plate (5 experiments)” value (HSV-2 (strain 333); 2.5 × 10^−2 % SDS during treatment) was 0/0/0/0/0, the “Plaques/Plate (5 experiments)” value (HSV-2 (strain 333); [2]) was 28/54/322/145/104 and the “Plaques/Plate (5 experiments)” value (HSV-2 (strain 333); [3]) was 0/0/0/0/0. For the same molecule, the “development of papillomas at the six sites that received SDS treated preparations (FIG. 1b)” value (CRPV; 10^−1 dilution of virus stock, 10 min, 37° C., rabbits) was “delayed in the development of papillomas”, the “inactivation of CRPV (GMD of lesions, FIG. 1a)” value (CRPV; 10^−1 dilution of virus stock, 10 min, 37° C., rabbits, days 18-50) was “substantially inactivated” and the “sites inoculated with treated virus in which papillomas failed to develop” value (CRPV; 10^−2 dilution of CRPV stock, 37° C. 10 min, five rabbits, 3-6 weeks) was 8 of 10. The “concentration (as low as) giving total inactivation of HIV-1” value (HIV-1 (strain IIIB)) was 0.025%, the “foci/plate Exp. 2 Day 14” value (BPV-1; [2]) was 273 and the “foci/plate Exp. 2 Day 17” value (BPV-1; [2]) was 162. For the same molecule, the “foci/plate Exp. 1 day 12” value (BPV-1; 5 % SDS during treatment) was 0, the “foci/plate Exp. 1 day 12” value (BPV-1; 5 × 10^−1 % SDS during treatment) was 0 and the “foci/plate Exp. 2 Day 14” value (BPV-1; [3]) was 0. For the same molecule, the “foci/plate Exp. 2 Day 17” value (BPV-1; [3]) was 0, the “foci/plate Exp. 1 day 12” value (BPV-1; [3]) was 0 and the “foci/plate Exp. 2 Day 14” value (BPV-1; [4]) was 271. The “foci/plate Exp. 2 Day 17” value (BPV-1; [4]) was 150, the “foci/plate Exp. 1 day 12” value (BPV-1; [4]) was 0 and the “foci/plate Exp. 2 Day 14” value (BPV-1; [5]) was 229. The “foci/plate Exp. 2 Day 17” value (BPV-1; [5]) was 151, the “relative potency in dose response curves” value (BPV-1; compared with other alkyl sulfate group members) was “most potent” and the “inactivation of BPV-1 morphologic transformation of C127 cells” value (BPV-1; detergent 1% final concentration, 37° C., 10 min) was “completely eliminated virus foci”. For the same molecule, the “concentration (as low as) that totally inactivates BPV-1 transforming ability” value (BPV-1; treatment of the virus at 37° C. for 10 minutes) was 0.05% and the “concentration (as low as) that totally inactivates BPV-1 transforming ability” value (BPV-1; treatment of the virus at 37° C. for 30 minutes) was 0.005%.
